# Laboratory results taken from PubChem BioAssay (NCI).
#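 1) Cells in 96-well plates. 2) Compound, 48 h, 5 concentrations. 3) Linear interpolation between surrounding doses. 4) Unreached endpoint = highest concentration. GI50 marks 50% less growth. At the TGI there is no net growth.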
# Legend:
# Assay in all cases: NCI anticancer screen, dose series, 48 h
# MDA-MB-468 breast = test system: MDA-MB-468 breast
# SN12C renal = test system: SN12C renal
# SK-MEL-2 melanoma = test system: SK-MEL-2 melanoma
# SNB-75 CNS = test system: SNB-75 CNS
# HT29 colon = test system: HT29 colon
# A498 renal = test system: A498 renal
# CAKI-1 renal = test system: CAKI-1 renal
# MOLT-4 leukemia = test system: MOLT-4 leukemia
# SR leukemia = test system: SR leukemia
# HCT-15 colon = test system: HCT-15 colon
# U251 CNS = test system: U251 CNS
# K-562 leukemia = test system: K-562 leukemia
# OVCAR-8 ovarian = test system: OVCAR-8 ovarian
# LOX IMVI melanoma = test system: LOX IMVI melanoma
# UACC-257 melanoma = test system: UACC-257 melanoma
# MDA-MB-231 breast = test system: MDA-MB-231 breast
# HL-60(TB) leukemia = test system: HL-60(TB) leukemia
# SNB-19 CNS = test system: SNB-19 CNS
# HCT-116 colon = test system: HCT-116 colon
# OVCAR-5 ovarian = test system: OVCAR-5 ovarian
# SK-OV-3 ovarian = test system: SK-OV-3 ovarian
# T-47D breast = test system: T-47D breast
# DU-145 prostate = test system: DU-145 prostate
# HOP-92 NSCLC = test system: HOP-92 NSCLC
# TK-10 renal = test system: TK-10 renal
# A549 NSCLC = test system: A549 NSCLC
# OVCAR-4 ovarian = test system: OVCAR-4 ovarian
# MALME-3M melanoma = test system: MALME-3M melanoma
# M14 melanoma = test system: M14 melanoma
# UACC-62 melanoma = test system: UACC-62 melanoma
# RXF 393 renal = test system: RXF 393 renal
# SK-MEL-5 melanoma = test system: SK-MEL-5 melanoma
# NCI/ADR-RES ovarian = test system: NCI/ADR-RES ovarian
# SW-620 colon = test system: SW-620 colon
# NCI-H522 lung = test system: NCI-H522 lung
# HOP-62 NSCLC = test system: HOP-62 NSCLC
# SK-MEL-28 melanoma = test system: SK-MEL-28 melanoma
# HCC-2998 colon = test system: HCC-2998 colon
# NCI-H226 lung = test system: NCI-H226 lung
# RPMI-8226 leukemia = test system: RPMI-8226 leukemia
# COLO 205 colon = test system: COLO 205 colon
# UO-31 renal = test system: UO-31 renal
# PC-3 prostate = test system: PC-3 prostate
# SF-539 CNS = test system: SF-539 CNS
# MDA-MB-435 = test system: MDA-MB-435
# EKVX NSCLC = test system: EKVX NSCLC
# 786-0 renal = test system: 786-0 renal
# HS 578T breast = test system: HS 578T breast
# OVCAR-3 ovarian = test system: OVCAR-3 ovarian
# NCI-H23 lung = test system: NCI-H23 lung
# IGROV1 ovarian = test system: IGROV1 ovarian
# SF-295 CNS = test system: SF-295 CNS
# KM12 colon = test system: KM12 colon
# SF-268 CNS = test system: SF-268 CNS
# NCI-H460 lung = test system: NCI-H460 lung
# ACHN renal = test system: ACHN renal
# BT-549 breast = test system: BT-549 breast
# CCRF-CEM leukemia = test system: CCRF-CEM leukemia
# MCF7 breast = test system: MCF7 breast
smiles,measurement,setting,value
COc1cc2c(cc1OC)C(Sc1ccc(Cl)cc1)c1c(nc(N)c(C#N)c1N)O2 (stereo not drawn),GI50,MDA-MB-468 breast,0.794 µM
same,TGI,MDA-MB-468 breast,2.7 µM
Nc1nc2c([nH]1)c1[nH]c3ccccc3c1c1[nH]c3ccccc3c21,GI50,MDA-MB-468 breast,2.02 µM
same,TGI,MDA-MB-468 breast,4.9 µM
O=C(Nc1ccc(-n2cc(-c3ccncc3)c(-c3ccc(Cl)c(O)c3)n2)cc1)c1ccc(Cl)c(Cl)c1,GI50,MDA-MB-468 breast,4.43 µM
same,TGI,MDA-MB-468 breast,> 100 µM
COc1ccc(-c2nc3sccn3c2/C=C/C(=O)c2cc(OC)c(OC)c(OC)c2)cc1,GI50,MDA-MB-468 breast,2.44 µM
same,TGI,MDA-MB-468 breast,12.4 µM
COc1cc(C(=O)/C=C/c2c(C)n([O-])c3ccc(Cl)cc3[n+]2=O)cc(OC)c1OC,GI50,MDA-MB-468 breast,3.52 µM
same,TGI,MDA-MB-468 breast,19.3 µM
CN(C)CC(=O)N1CCc2c([nH]c3ccccc23)C1c1cccnc1 (stereo not drawn),GI50,MDA-MB-468 breast,3.86 µM
same,TGI,MDA-MB-468 breast,52.9 µM
CNc1ccc(CSc2ccc(C)cc2)cc1,GI50,MDA-MB-468 breast,2.75 µM
same,TGI,MDA-MB-468 breast,9.9 µM
C=C(c1ccc(C(=O)NCCCn2ccnc2)cc1)c1cc2c(cc1C)C(C)(C)CCC2(C)C,GI50,MDA-MB-468 breast,1.04 µM
same,TGI,MDA-MB-468 breast,3.24 µM
COc1ccc([C@H]2c3[nH]c4ccccc4c3C[C@H]3C(=O)N(CCCCCCC(=O)NO)CC(=O)N23)cc1,GI50,MDA-MB-468 breast,1.43 µM
same,TGI,MDA-MB-468 breast,18.5 µM
CCCCCCC1CCCCN1C(c1ccccc1)C(O)c1ccccc1 (stereo not drawn),GI50,MDA-MB-468 breast,3.81 µM
same,TGI,MDA-MB-468 breast,14.4 µM
COc1csc(/C=N/NC(=O)c2[nH]c3ccc(Br)cc3c2-c2ccccc2)c1,GI50,SN12C renal,0.0387 µM
same,TGI,SN12C renal,9.1 µM
same,GI50,SK-MEL-2 melanoma,0.0355 µM
same,TGI,SK-MEL-2 melanoma,0.389 µM
same,GI50,SNB-75 CNS,0.1 µM
same,TGI,SNB-75 CNS,3.78 µM
same,GI50,HT29 colon,0.0267 µM
same,TGI,HT29 colon,0.0691 µM
same,GI50,A498 renal,24 µM
same,TGI,A498 renal,70.1 µM
same,GI50,CAKI-1 renal,0.111 µM
same,TGI,CAKI-1 renal,34.6 µM
same,GI50,MOLT-4 leukemia,0.0463 µM
same,TGI,MOLT-4 leukemia,> 37.4 µM
same,GI50,SR leukemia,0.0235 µM
same,TGI,SR leukemia,23.3 µM
same,GI50,HCT-15 colon,0.0332 µM
same,TGI,HCT-15 colon,14.8 µM
same,GI50,U251 CNS,0.032 µM
same,TGI,U251 CNS,12.3 µM
same,GI50,K-562 leukemia,0.0305 µM
same,TGI,K-562 leukemia,13.1 µM
same,GI50,OVCAR-8 ovarian,0.0289 µM
same,TGI,OVCAR-8 ovarian,2 µM
same,GI50,LOX IMVI melanoma,0.0302 µM
same,TGI,LOX IMVI melanoma,18.9 µM
same,GI50,UACC-257 melanoma,0.635 µM
same,TGI,UACC-257 melanoma,> 67.2 µM
same,GI50,MDA-MB-231 breast,0.0264 µM
same,TGI,MDA-MB-231 breast,0.0693 µM
same,GI50,HL-60(TB) leukemia,0.0302 µM
same,TGI,HL-60(TB) leukemia,0.18 µM
same,GI50,SNB-19 CNS,0.047 µM
same,TGI,SNB-19 CNS,18.4 µM
same,GI50,HCT-116 colon,0.0305 µM
same,TGI,HCT-116 colon,1.15 µM
same,GI50,OVCAR-5 ovarian,0.0475 µM
same,TGI,OVCAR-5 ovarian,53.2 µM
same,GI50,SK-OV-3 ovarian,0.0519 µM
same,TGI,SK-OV-3 ovarian,15.5 µM
same,GI50,T-47D breast,3.89 µM
same,TGI,T-47D breast,> 95.8 µM
same,GI50,DU-145 prostate,0.0368 µM
same,TGI,DU-145 prostate,11.5 µM
same,GI50,HOP-92 NSCLC,0.92 µM
same,TGI,HOP-92 NSCLC,51.2 µM
same,GI50,TK-10 renal,13.2 µM
same,TGI,TK-10 renal,43.6 µM
same,GI50,A549 NSCLC,0.0393 µM
same,TGI,A549 NSCLC,22 µM
same,GI50,OVCAR-4 ovarian,5.42 µM
same,TGI,OVCAR-4 ovarian,> 100 µM
same,GI50,MALME-3M melanoma,0.0453 µM
same,TGI,MALME-3M melanoma,20.5 µM
same,GI50,M14 melanoma,0.0292 µM
same,TGI,M14 melanoma,22.5 µM
same,GI50,UACC-62 melanoma,0.042 µM
same,TGI,UACC-62 melanoma,16.7 µM
same,GI50,RXF 393 renal,0.0496 µM
same,TGI,RXF 393 renal,0.906 µM
same,GI50,SK-MEL-5 melanoma,0.0263 µM
same,TGI,SK-MEL-5 melanoma,0.0769 µM
same,GI50,NCI/ADR-RES ovarian,0.0238 µM
same,TGI,NCI/ADR-RES ovarian,0.0574 µM
same,GI50,SW-620 colon,0.0424 µM
same,TGI,SW-620 colon,> 100 µM
same,GI50,NCI-H522 lung,< 0.0138 µM
same,TGI,NCI-H522 lung,0.0413 µM
same,GI50,HOP-62 NSCLC,0.0794 µM
same,TGI,HOP-62 NSCLC,10.5 µM
same,GI50,SK-MEL-28 melanoma,1.73 µM
same,TGI,SK-MEL-28 melanoma,46.5 µM
same,GI50,HCC-2998 colon,0.0894 µM
same,TGI,HCC-2998 colon,17.3 µM
same,GI50,NCI-H226 lung,0.315 µM
same,TGI,NCI-H226 lung,2.16 µM
same,GI50,RPMI-8226 leukemia,0.0391 µM
same,TGI,RPMI-8226 leukemia,8.21 µM
same,GI50,COLO 205 colon,0.0265 µM
same,TGI,COLO 205 colon,0.0703 µM
same,GI50,UO-31 renal,0.0602 µM
same,TGI,UO-31 renal,> 100 µM
same,GI50,PC-3 prostate,0.0575 µM
same,TGI,PC-3 prostate,48.8 µM
same,GI50,SF-539 CNS,0.0217 µM
same,TGI,SF-539 CNS,0.0531 µM
same,GI50,MDA-MB-435,0.0272 µM
same,TGI,MDA-MB-435,0.0985 µM
same,GI50,EKVX NSCLC,0.0863 µM
same,TGI,EKVX NSCLC,> 100 µM
same,GI50,786-0 renal,0.0851 µM
same,TGI,786-0 renal,9.69 µM
same,GI50,MDA-MB-468 breast,0.0232 µM
same,TGI,MDA-MB-468 breast,0.0651 µM
same,GI50,HS 578T breast,0.0346 µM
same,TGI,HS 578T breast,22.7 µM
same,GI50,OVCAR-3 ovarian,0.0325 µM
same,TGI,OVCAR-3 ovarian,0.72 µM
same,GI50,NCI-H23 lung,0.0427 µM
same,TGI,NCI-H23 lung,17 µM
same,GI50,IGROV1 ovarian,0.0778 µM
same,TGI,IGROV1 ovarian,17.8 µM
same,GI50,SF-295 CNS,0.0303 µM
same,TGI,SF-295 CNS,6.48 µM
same,GI50,KM12 colon,0.0373 µM
same,TGI,KM12 colon,10.9 µM
same,GI50,SF-268 CNS,0.0488 µM
same,TGI,SF-268 CNS,> 54.2 µM
same,GI50,NCI-H460 lung,0.0346 µM
same,TGI,NCI-H460 lung,10.6 µM
same,GI50,ACHN renal,0.0634 µM
same,TGI,ACHN renal,34.7 µM
same,GI50,BT-549 breast,0.0305 µM
same,TGI,BT-549 breast,0.354 µM
same,GI50,CCRF-CEM leukemia,0.0299 µM
same,TGI,CCRF-CEM leukemia,1.02 µM
same,GI50,MCF7 breast,0.028 µM
same,TGI,MCF7 breast,12.7 µM
